Key:
[1] = target: T1, human OX2 receptor (Homo sapiens, UniProt O43614); test: Measurement of orexin type 2 receptor agonist activity (calcium fluorescence, Fluo-4 AM, FDSS); format: cell-based; details: compound at 3 μM; CHO cells forcibly expressing human OX2 receptor; DMSO = 0%, 10 nM orexin A (human) = 100%
T1 construct: expressed in transfected cells
T1 sequence (O43614 1-444): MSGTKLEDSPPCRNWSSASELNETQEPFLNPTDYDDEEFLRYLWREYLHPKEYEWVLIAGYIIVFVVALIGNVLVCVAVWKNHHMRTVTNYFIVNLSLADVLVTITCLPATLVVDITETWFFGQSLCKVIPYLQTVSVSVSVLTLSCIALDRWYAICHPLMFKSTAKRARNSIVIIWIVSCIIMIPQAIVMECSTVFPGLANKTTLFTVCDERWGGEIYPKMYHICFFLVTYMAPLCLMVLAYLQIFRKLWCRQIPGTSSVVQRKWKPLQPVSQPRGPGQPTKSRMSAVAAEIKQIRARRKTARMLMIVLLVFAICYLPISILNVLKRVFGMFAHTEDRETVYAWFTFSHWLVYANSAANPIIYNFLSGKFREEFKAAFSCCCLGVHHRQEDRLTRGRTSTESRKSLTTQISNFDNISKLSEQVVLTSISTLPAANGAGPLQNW
Summary of the method: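 Agonist response is expressed as % of the fluorescence change given by 10 nM human orexin A, with DMSO as 0%, read over 1 min 40 s on FDSS after compound addition. Cells: stable human OX2 (1-444) CHO-K1 clones, dye-loaded with Fluo-4 AM plus probenecid in HEPES-buffered HBSS with 0.1% BSA.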

[2] = test system: cynomolgus monkeys; test: Evaluation of wake-promoting effects in cynomolgus monkeys (EEG, EMG, locomotor activity); format: in vivo, cynomolgus monkey; details: 3 mg/kg p.o. at zeitgeber time 12, male cynomolgus monkeys, time spent in wakefulness for 4 hours after administration
Protocol: The wake-promoting effects were evaluated by measuring the electroencephalogram (EEG), electromyogram (EMG) and locomotor activity in cynomolgus monkeys. Under isoflurane anesthesia (0.5-5%, Pfizer Japan Inc., Tokyo, Japan), male cynomolgus monkeys (2-3 years old, Hamri Co., Ltd., Ibaraki, Japan) were surgically implanted with radio-telemetry transmitters (L03-F3, Data Sciences International Inc., MN, USA). The two EEG electrodes were stereotaxically positioned at the parietal area and secured to the cranium with stainless-steel screws in contact with the dura. Bilateral EMG electrodes were implanted into the back cervical muscles.
After at least a 1-month recovery period in home cages, the monkeys were habituated to the recording chamber (an acrylic cage 60 W×55 D×75 H (cm)) located in a soundproof and electrically shielded room by the time animals sleep sufficiently in the experimental room. Cortical EEG, EMG and locomotor activity were recorded using the telemetry system (PhysioTel Digital telemetry platform, Data Sciences International Inc.). The signals were semi-automatically scored in 20-second epochs by a sleep scoring system (SleepSign, Kissei Comtec Co., Ltd., Nagano, Japan).
Test compound (3 mg/kg) suspended in 0.5% methylcellulose aqueous solution or vehicle (i.e., 0.5% methylcellulose aqueous solution) was administered orally (p.o.) to monkeys at zeitgeber time 12 in a volume of 5 mL/kg body weight with a pretest-posttest design (n=2), and then EEG, EMG and locomotor activity were recorded. The time spent in wakefulness for 4 hours after administration (% of vehicle treatment) was calculated by using SleepSign.

SMILES | OX2R agonist activity (3 μM, %) [1] | Wakefulness time (% of vehicle treatment) (Mean, n = 2) [2]
Cc1cnc([C@@H]2CC(N3C[C@@H](NS(C)(=O)=O)C(F)(F)C3)=NO2)c(-c2c(F)cc(F)cc2F)c1 [Example 11, N-[(3R)-4,4-difluoro-1-{(5S)-5-[5-methyl-3-(2,4,6-trifluorophenyl)pyridin-2-yl]-4,5-dihydro-1,2-oxazol-3-yl}pyrrolidin-3-yl]methanesulfonamide] | 96% | 638.80 % of vehicle treatment
O=S(=O)(CF)N[C@@H]1CN(C2=NO[C@](CF)(c3ncc(F)cc3-c3c(F)cccc3F)C2)CC1(F)F [Example 149, N-[(3R)-1-{(5S)-5-[3-(2,6-difluorophenyl)-5-fluoropyridin-2-yl]-5-(fluoromethyl)-4,5-dihydro-1,2-oxazol-3-yl}-4,4-difluoropyrrolidin-3-yl]-1-fluoromethanesulfonamide] | 96% | 282.21 % of vehicle treatment
C[C@@]1(c2ncc(F)cc2-c2c(F)cccc2F)CC(N2C[C@@H](NS(C)(=O)=O)C(F)(F)C2)=NO1 [Example 165, N-[(3R)-1-{(5S)-5-[3-(2,6-difluorophenyl)-5-fluoropyridin-2-yl]-5-methyl-4,5-dihydro-1,2-oxazol-3-yl}-4,4-difluoropyrrolidin-3-yl]methanesulfonamide] | 100% | 716.25 % of vehicle treatment
O=S(=O)(CF)N[C@@H]1CN(C2=NOC(c3ncc(Cl)cc3-c3c(F)cccc3F)C2)CC1(F)F (stereo partly drawn) [Example 148, N-[(3R)-1-{5-[5-chloro-3-(2,6-difluorophenyl)pyridin-2-yl]-4,5-dihydro-1,2-oxazol-3-yl}-4,4-difluoropyrrolidin-3-yl]-1-fluoromethanesulfonamide] | 98% | 
Cc1cnc(C2CC(N3C[C@@H](NS(C)(=O)=O)C(F)(F)C3)=NO2)c(-c2c(F)cccc2F)c1 (stereo partly drawn) [Example 21, N-[(3R)-1-{5-[3-(2,6-difluorophenyl)-5-methylpyridin-2-yl]-4,5-dihydro-1,2-oxazol-3-yl}-4,4-difluoropyrrolidin-3-yl]methanesulfonamide] | 100% | 
Cc1cnc([C@@H]2CC(N3C[C@@H](C)[C@H](NS(C)(=O)=O)C3)=NO2)c(-c2c(F)cccc2F)c1 (single isomer, unassigned) [Example 71, optical isomer of N-[(3S,4R)-1-{(5S)-5-[3-(2,6-difluorophenyl)-5-methylpyridin-2-yl]-4,5-dihydro-1,2-oxazol-3-yl}-4-methylpyrrolidin-3-yl]methanesulfonamide or N-[(3R,4S)-1-{(5S)-5-[3-(2,6-difluorophenyl)-5-methylpyridin-2-yl]-4,5-dihydro-1,2-oxazol-3-yl}-4-methylpyrrolidin-3-yl]methanesulfonamide] | 108% | 
CC1(c2ncc(F)cc2-c2c(F)cccc2F)CC(N2C[C@H](F)[C@H](NS(C)(=O)=O)C2)=NO1 (stereo partly drawn) [Example 118, N-[(3R,4S)-1-{5-[3-(2,6-difluorophenyl)-5-fluoropyridin-2-yl]-5-methyl-4,5-dihydro-1,2-oxazol-3-yl}-4-fluoropyrrolidin-3-yl]methanesulfonamide] | 100% | 
Cc1cc(-c2c(F)cccc2F)c(C2CC(N3C[C@@H](NS(C)(=O)=O)C(F)(F)C3)=NO2)cn1 (stereo partly drawn) [Example 127, N-[(3R)-1-{5-[4-(2,6-difluorophenyl)-6-methylpyridin-3-yl]-4,5-dihydro-1,2-oxazol-3-yl}-4,4-difluoropyrrolidin-3-yl]methanesulfonamide] | 100% | 
CS(=O)(=O)N[C@@H]1CN(C2=NOC(CF)(c3ncc(F)cc3-c3c(F)cc(F)cc3F)C2)C[C@@H]1F (stereo partly drawn) [Example 113, N-[(3R,4S)-4-fluoro-1-{5-(fluoromethyl)-5-[5-fluoro-3-(2,4,6-trifluorophenyl)pyridin-2-yl]-4,5-dihydro-1,2-oxazol-3-yl}pyrrolidin-3-yl]methanesulfonamide] | 100% | 
Cc1cnc([C@@H]2CC(N3C[C@@H](NS(C)(=O)=O)C(F)(F)C3)=NO2)c(-c2c(F)cc(Cl)cc2F)c1 [Example 53, N-[(3R)-1-{5-[3-(4-chloro-2,6-difluorophenyl)-5-methylpyridin-2-yl]-4,5-dihydro-1,2-oxazol-3-yl}-4,4-difluoropyrrolidin-3-yl]methanesulfonamide] | 98% | 
CS(=O)(=O)N[C@@H]1CN(C2=NO[C@](CF)(c3ncc(F)cc3-c3c(F)cccc3F)C2)CC1(F)F [Example 109, N-[(3R)-1-{(5S)-5-[3-(2,6-difluorophenyl)-5-fluoropyridin-2-yl]-5-(fluoromethyl)-4,5-dihydro-1,2-oxazol-3-yl}-4,4-difluoropyrrolidin-3-yl]methanesulfonamide] | 101% | 558.37 % of vehicle treatment
CC1(c2ncc(Cl)cc2-c2ncc(F)cc2F)CC(N2C[C@@H](NS(C)(=O)=O)C(F)(F)C2)=NO1 (stereo partly drawn) [Example 152, N-{(3R)-1-[5-(5′-chloro-3,5-difluoro[2,3′-bipyridin]-2′-yl)-5-methyl-4,5-dihydro-1,2-oxazol-3-yl]-4,4-difluoropyrrolidin-3-yl}methanesulfonamide] | 107% | 
CS(=O)(=O)N[C@@H]1CN(C2=NOC(c3c(F)ccc(F)c3-c3c(F)cccc3F)C2)CC1(F)F (stereo partly drawn) [Example 136, N-{(3R)-4,4-difluoro-1-[5-(2′,3,6,6′-tetrafluoro[1,1'-biphenyl]-2-yl)-4,5-dihydro-1,2-oxazol-3-yl]pyrrolidin-3-yl}methanesulfonamide] | 114% | 
Cc1cnc([C@@H]2CC(O[C@@H]3CC[C@H](NS(C)(=O)=O)C3)=NO2)c(-c2c(F)cc(F)cc2F)c1 (mixture of isomers) [Example 62, mixture of N-[(1R,3S)-3-({(5S)-5-[5-methyl-3-(2,4,6-trifluorophenyl)pyridin-2-yl]-4,5-dihydro-1,2-oxazol-3-yl}oxy)cyclopentyl]methanesulfonamide and N-[(1S,3R)-3-({(5S)-5-[5-methyl-3-(2,4,6-trifluorophenyl)pyridin-2-yl]-4,5-dihydro-1,2-oxazol-3-yl}oxy)cyclopentyl]methanesulfonamide] | 17% | 
Cc1cnc(C2(CF)CC(N3C[C@@H](NS(C)(=O)=O)C(F)(F)C3)=NO2)c(-c2c(F)cccc2F)n1 (stereo partly drawn) [Example 104, N-[(3R)-1-{5-[3-(2,6-difluorophenyl)-5-methylpyrazin-2-yl]-5-(fluoromethyl)-4,5-dihydro-1,2-oxazol-3-yl}-4,4-difluoropyrrolidin-3-yl]methanesulfonamide] | 102% | 
